Reference: US20240199578A1, “SOLID STATE FORMS OF ZAVEGEPANT AND PROCESS FOR PREPARATION THEREOF” (TEVA CZECH INDUSTRIES S.R.O, priority 2021, published 2024)

Assay: Stability to polymorphic conversion (heating, grinding, high relative humidity)
Type: physicochemical
Conditions: when heated, during grinding and/or high relative humidity

Cc1cc(C[C@@H](NC(=O)N2CCC(c3cc4ccccc4[nH]c3=O)CC2)C(=O)N2CCN(C3CCN(C)CC3)CC2)cc2cn[nH]c12 [Form B]
stability to polymorphic conversion: particularly stable to polymorphic conversion
